Test results taken from US8399417B2, “Food” (Ajinomoto Co., Inc., priority 2007, dated 2013).
Starred links: 1 amine or outer side, 2 acyl side, 3 side chain; linkers in the order of their positions; H or OH if unused. Non-standard residues stand in square brackets, D forms with d. No end group written: not given here. γGlu = O=C(O)[C@H](CCC(=O)[*:2])N[*:1]; Abu = CC[C@H](N)C(=O)O

How the values were obtained:
human calcium receptor = target: T1, human calcium receptor (Homo sapiens, UniProt P41180); test: Calcium receptor-activating effect: Ca ion concentration-dependent Cl ionic current in Xenopus laevis oocyte expression system; format: cell-based; settings: for Activity (lowest concentration at which current was detected): peptide added at 1,000 to 0.1 μM to potential-clamped oocytes, Table 1
T1 construct: expressed in transfected cells; host or cells: Xenopus laevis oocytes injected with cRNA; the gene was PCR-cloned from human kidney cDNA (Clontech) into pBR322
T1 sequence (P41180 20-1078): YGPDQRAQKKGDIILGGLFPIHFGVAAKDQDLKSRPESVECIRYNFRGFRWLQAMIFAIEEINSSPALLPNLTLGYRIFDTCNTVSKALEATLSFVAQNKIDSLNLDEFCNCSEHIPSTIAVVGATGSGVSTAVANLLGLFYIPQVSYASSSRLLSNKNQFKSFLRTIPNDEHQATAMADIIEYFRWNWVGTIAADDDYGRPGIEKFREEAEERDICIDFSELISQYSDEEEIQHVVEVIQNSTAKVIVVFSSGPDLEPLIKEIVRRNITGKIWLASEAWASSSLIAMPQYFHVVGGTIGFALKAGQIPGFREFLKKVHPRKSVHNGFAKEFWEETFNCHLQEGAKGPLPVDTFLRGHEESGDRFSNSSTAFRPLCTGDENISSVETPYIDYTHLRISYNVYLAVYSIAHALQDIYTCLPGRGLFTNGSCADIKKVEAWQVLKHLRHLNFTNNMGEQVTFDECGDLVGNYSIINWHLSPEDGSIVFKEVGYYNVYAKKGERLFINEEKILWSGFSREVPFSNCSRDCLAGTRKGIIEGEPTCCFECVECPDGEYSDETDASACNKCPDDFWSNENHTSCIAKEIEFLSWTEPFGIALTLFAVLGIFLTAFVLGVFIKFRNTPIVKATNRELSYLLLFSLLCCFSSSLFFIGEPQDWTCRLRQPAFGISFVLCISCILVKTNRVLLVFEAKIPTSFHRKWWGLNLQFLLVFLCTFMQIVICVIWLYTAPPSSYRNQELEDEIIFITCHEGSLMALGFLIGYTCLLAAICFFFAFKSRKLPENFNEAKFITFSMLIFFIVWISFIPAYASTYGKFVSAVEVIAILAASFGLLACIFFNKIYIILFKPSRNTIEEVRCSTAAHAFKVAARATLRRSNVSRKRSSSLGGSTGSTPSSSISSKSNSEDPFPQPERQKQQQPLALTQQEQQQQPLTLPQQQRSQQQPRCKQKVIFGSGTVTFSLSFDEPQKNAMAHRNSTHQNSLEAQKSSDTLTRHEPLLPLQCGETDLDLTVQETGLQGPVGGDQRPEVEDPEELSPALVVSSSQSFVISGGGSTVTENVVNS
Experimental: For evaluation of the calcium receptor-activating effect, a Ca ion concentration-dependent Cl ionic current measuring method using a Xenopus laevis oocyte expression system was used. If each activator is added to Xenopus laevis oocytes expressing the calcium receptor, intracellular Ca ions increase. Then, the Ca ion concentration-dependent Cl channel opens, and the intracellular current value changes as an ionic current. By measuring the change in the intracellular current value, whether the calcium receptor-activating effect is present or not can be determined.
Specifically, the abdomen of Xenopus laevis was opened, and an egg batch was taken out and then treated with a 1% collagenase solution at 20° C. for 2 hours to obtain individual oocytes. Into the oocytes, 50 nl of 1 μg/μl receptor cRNA or 50 nl of sterilized water per oocyte were injected by using a micro glass capillary, and the oocytes were cultured at 18° C. for 2 to 3 days. For the culture, a solution obtained by adding 2 mM pyruvic acid, 10 U/ml penicillin, and 10 μg/ml streptomycin to the solution in Reference Example 2 was used. After the culture, a test solution was added to the oocytes injected with cRNA or sterilized water. Electrophysiological measurement was performed by using an amplifier Geneclamp 500 (manufactured by Axon) and recording software AxoScope 9.0 (manufactured by Axon). The oocytes were membrane potential-clamped at −70 mV by the double electrode potential clamp method, and the intracellular current via the Ca ion concentration-dependent Cl ion was measured. The maximum value of the intracellular current was defined as the response current value.
The calcium receptor-activating effect of L-amino acids was evaluated by using the method described in Reference Example 6. That is, oocytes injected with cRNA of the calcium receptor or sterilized water were prepared, and membrane potential-clamped at −70 mV by the double electrode potential clamp method. To the potential-clamped oocytes, alanine (10 mM), arginine (10 mM), asparagine (10 mM), aspartic acid (10 mM), cysteine (10 mM), glutamine (10 mM), glutamic acid (10 mM), glycine (10 mM), histidine (10 mM), isoleucine (10 mM), leucine (10 mM), lysine (10 mM), methionine (10 mM), phenylalanine (10 mM), proline (10 mM), serine (10 mM), threonine (10 mM), tryptophan (10 mM), tyrosine (10 mM), valine (10 mM), ornithine (10 mM), taurine (10 mM), or hydroxyproline (10 mM) was added, and Ca ion concentration-dependent Cl response current was measured. […] 25, 2000, 97(9): 4814-9.
The calcium receptor-activating effect of D-cysteine was evaluated by using the method described in Reference Example 6. That is, oocytes injected with cRNA of the calcium receptor or sterilized water were prepared, and membrane potential-clamped at −70 mV by the double electrode potential clamp method. To the potential-clamped oocytes, D-cysteine (10 mM), L-cysteine (10 mM), D-tryptophan (10 mM), or L-tryptophan (10 mM) was added, and Ca ion concentration-dependent Cl response current was measured.
The calcium receptor-activating effect of a peptide was evaluated by using the method described in Reference Example 6. That is, oocytes injected with cRNA of the calcium receptor or sterilized water were prepared, and membrane potential-clamped at −70 mV by the double electrode potential clamp method.
The calcium receptor-activating effects of peptides were evaluated in the same manner as that of Reference Example 10. Each of the peptides shown in Table 1 was added to potential-clamped oocytes at 1,000 μM, 300 μM, 100 μM, 30 μM, 10 μM, 3 μM, 1 μM, 0.3 μM, and 0.1 μM, and Ca ion concentration-dependent Cl response current was measured.

[1] = Kokumi-imparting activity intensity, quantitative sensory evaluation test; format: in vivo, human; parameters: key: *: Unmeasurable: kokumi-imparting activity is too strong to measure by sensory evaluation
Experimental: The quantitative sensory evaluation test was performed as follows. […] It should be noted that a sample, which became acidic after the sample had been dissolved, was adjusted with NaOH to pH 6.8 to 7.2 before use. […] The test was performed with n=3 based on the following sensory evaluation scores: control (0 point) and glutathione addition (3 points).
The quantitative sensory evaluation test was performed as follows. […] It should be noted that a sample, which became acidic after the sample had been dissolved, was adjusted with NaOH to pH 6.8 to 7.2 before use. The test was performed with n=5 based on the following sensory evaluation scores: control (0 point) and glutathione addition (3 points).
The quantitative sensory evaluation test was performed as follows. […] It should be noted that a sample, which became acidic after the sample had been dissolved, was adjusted with NaOH to pH 6.8 to 7.2 before use. The test was performed with n=12 based on the following sensory evaluation scores: control (0 point) and glutathione addition (3 points).

[2] = 0.01 g/dl, n=12, control 0, glutathione 3 points, Table 5
[3] = 0.01 g/dl, n=5, control 0, glutathione 3 points, Table 4
[4] = 0.1 g/dl, n=5, control 0, glutathione 3 points, Table 4
[5] = 0.1 g/dl, n=12, control 0, glutathione 3 points, Table 5

[γGlu]-[Abu]-Gly
Activity (lowest concentration at which current was detected) (human calcium receptor): 3 µM | Kokumi intensity, Aftertaste [1, 2]: 2.0 points | Kokumi intensity, Initial and middle taste [1, 2]: 3.0 points

[γGlu]-Val-Gly
Activity (lowest concentration at which current was detected) (human calcium receptor): 0.1 µM | Kokumi intensity, Aftertaste [1, 3]: 3.0 points | Kokumi intensity, Initial and middle taste [1, 3]: 3.0 points | Kokumi intensity, Aftertaste [1, 2]: 3.0 points | Kokumi intensity, Initial and middle taste [1, 2]: 3.0 points | Kokumi intensity, Aftertaste ([1]; 0.1 g/dl, n=5, Table 4): * | Kokumi intensity, Initial and middle taste ([1]; 0.1 g/dl, n=5, Table 4): * | Taste profile ([1]; 0.1 g/dl, n=5, Table 4): *

N[C@@H](CCC(=O)N[C@@H](CS)C(=O)NCC(=O)O)C(=O)O [γ-Glu-Cys-Gly, reference compound]
calcium receptor-activating effect (Cl response current) (human calcium receptor; peptide 50 μM, FIG. 4): definite calcium receptor-activating effect | Taste profile ([1]; 0.1 g/dl, n=3, Table 3): Thickness, growth, and continuity | Kokumi intensity, Aftertaste ([1]; 0.1 g/dl, n=3, control 0, glutathione 3 points, Table 3): 3.0 points | Kokumi intensity, Aftertaste [1, 4]: 3.0 points | Kokumi intensity, Initial and middle taste [1, 4]: 3.0 points | Kokumi intensity, Aftertaste [1, 5]: 3.0 points | Kokumi intensity, Initial and middle taste [1, 5]: 3.0 points | Kokumi intensity, Initial and middle taste ([1]; 0.1 g/dl, sodium glutamate, inosine monophosphate, sodium chloride solution, n=3, control 0, glutathione 3 points, Table 3): 3.0 points
